Where two headings read alike, the source gives them in different places.
Legend:
[1] = system: influenza-mediated syncytia formation, CV-1 cells
hemoglobin = experiment: Hb control (quenching of OD570 of hemoglobin); design: species or system human
[2] = system: hemagglutinin-mediated hemolysis of human red blood cells; experiment: Hemolysis (HEM) assay; assay type: cell-based, C22 influenza virus; human red blood cells; settings: for inhibition at 100 µM: log conc -4 (M)
low pH BHA = experiment: SPA POST control (nonspecific quenching); design: species or system C22 / X31 influenza virus (H3N2)
Description: The compounds being screened by SPA are present during scintillation counting. Some of the chemicals, particularly those that are highly colored, quench the detection of radioactivity. A control ("POST") distinguishes whether apparent inhibition arises from inhibition of the conformational change or from nonspecific effects. The test compound is added to a sample of BHA that had previously been acidified and reneutralized. The mixture is then precipitated as usual. Since the BHA treated in this manner is known to be in the low pH conformation, a reduction in measurable cpm compared to controls with ligand omitted proves the compound interferes with the detection system.
^3 H-Leu BHA was diluted to 10,000 cpm (counts per minute) per 200 μl in MSSH buffer (10 mM HEPES, 10 mM MES, 10 mM succinate, 0.10 M NaCl, pH 7.0) containing 0.1% NP40. Protein was incubated with the specified concentration of trial compound for 25 minutes at RT. The same volume of solvent used to dissolve the compound was added to control samples and the final concentration of DMSO in all solutions was 0.67% v/v. A predetermined amount of 1N HAc was added to bring the reactions to the appropriate pH (usually pH 5.0). Following a 5 minute (unless specified otherwise) incubation at RT, reactions were reneutralized with 1N NaOH. For POST controls, compounds were added to the appropriate concentration after reneutralization. 200 μL aliquots of the protein solution were added to scintillation vials containing 100 μl protein A-SPA beads (Amersham), 5% fetal bovine serum (FBS), and antibody. Vials were incubated overnight at RT with constant shaking. Each reaction used 10 μl of fusion peptide antiserum diluted 1:10 with 50% glycerol. Cpm were detected in a Beckman LS3801 scintillation counter without addition of liquid scintillant.
Apparent inhibition due to nonspecific effects was quantitated from the POST controls with the equation:
observed cpm=true cpm*quench factor

[3] = target: T1, hemagglutinin (Influenza A virus (A/X-31(H3N2)), UniProt P03438); experiment: Binding site by crystallography (preliminary)
T1 construct: HA1 and HA2 cleaved from precursor HA0

in vitro = settings: dog, mdck
C22 virus in MDCK2 cells = experiment: microbe, parasite or virus in culture; settings: unidentified influenza virus; for inhibition at 1 µM / inhibition at 10 µM / inhibition at 100 µM: MDCK2, 15 h, read-out: infectivity % inhibition
HIV-1 fusion protein = HIV-1 fusion protein (Human immunodeficiency virus type 1 group M subtype B, UniProt P04578); experiment: Inhibition of fusion mediated by the HIV-1 fusion protein; assay type: cell-based
[4] = system: influenza-mediated syncytia formation, CV-1 cells; experiment: cells; settings: unidentified influenza virus, CV-1, read-out: IC50 syncytia
[5] = unidentified influenza virus, Erythrocyte, 0.25 h, Table 6, 10^-3 = 1 mM, low pH 15 minutes, read-out: IC50 hemolysis
[6] = unidentified influenza virus, Erythrocyte, Table 7, read-out: HEM, negative log of IC50 (converted)
[7] = unidentified influenza virus, Erythrocyte, read-out: hemolysis % ↓ OD
[8] = MDCK2, read-out: IC50 infectivity
[9] = MDCK2, read-out: INF, negative log of IC50 (converted)

O=C1C=CC(=O)c2ccccc21 [Compound 90, 1,4-naphthoquinone]
syncytia, Table 6 ([1]; Table 6): morph | Hb control % ↓ OD (hemoglobin; log conc -3 (M)): 68.1% | Hb control % ↓ OD (hemoglobin; log conc -4 (M)): 57.1% | Hb control % ↓ OD (hemoglobin; log conc -5 (M)): 24.9% | IC50 [2, 5]: 1000 µM | IC50 [2, 6]: 1000 µM | inhibition at 1000 µM ([2]; unidentified influenza virus, Erythrocyte, log conc -3 (M), read-out: hemolysis % ↓ OD): 90.3% | inhibition at 100 µM [2, 7]: 33.1% | inhibition at 10 µM ([2]; unidentified influenza virus, Erythrocyte, log conc -5 (M), read-out: hemolysis % ↓ OD): 4.7% | % inhibition, POST control (low pH BHA; log conc -3 (M)): 68.2% | % inhibition, POST control (low pH BHA; log conc -4 (M)): 30.8% | % inhibition, POST control (low pH BHA; log conc -5 (M)): 4.6% | binding site (preliminary crystallographic results) [3]: binding to hemagglutinin at a site in the hinge region of the trimer | cytotoxicity at 15 h, 1 µM (in vitro): -6.7 ± 7.3% | cytotoxicity at 15 h, 10 µM (in vitro): 33 ± 9.9% | cytotoxicity at 15 h, 100 µM (in vitro): 96.8 ± 3.8% | inhibition at 1 µM (C22 virus in MDCK2 cells): -3.3 ± 2.4% | inhibition at 10 µM (C22 virus in MDCK2 cells): 81.7 ± 2.2% | inhibition at 100 µM (C22 virus in MDCK2 cells): 96.9% | IC50 (C22 virus in MDCK2 cells; [8]): 10 µM | IC50 (C22 virus in MDCK2 cells; [9]): 10 µM | IC50 (HIV-1 fusion protein): 2 µM

O=C1C=C(O)C(=O)c2ccccc21 [Compound 120, 2-hydroxy-1,4-naphthoquinone]
inhibition of syncytia formation ([1]; 10 μM): Significant inhibition was not observed | Hb control % ↓ OD (hemoglobin; log conc -4 (M)): 4.4% | inhibition of hemolytic activity [2]: did not | IC50 [2, 5]: > 100 µM | IC50 [2, 6]: > 100 µM | inhibition at 100 µM [2, 7]: 6.2% | IC50 [4]: > 10 µM | cytotoxicity at 15 h, 1 µM (in vitro): 0.5 ± 0.3% | cytotoxicity at 15 h, 10 µM (in vitro): -6 ± 5% | cytotoxicity at 15 h, 100 µM (in vitro): -7 ± 4.4% | inhibition at 1 µM (C22 virus in MDCK2 cells): 7.1 ± 6.7% | inhibition at 10 µM (C22 virus in MDCK2 cells): 4.7 ± 0.9% | inhibition at 100 µM (C22 virus in MDCK2 cells): -2.3 ± 3.1% | IC50 (C22 virus in MDCK2 cells; [8]): > 1000 µM | IC50 (C22 virus in MDCK2 cells; [9]): > 1000 µM

— US6080791A, “Method of treating a viral condition by inhibiting membrane fusion” (priority 1992, dated 2000)
